Experimental data published in patent US6737383B1, “Herbicidal oxadiazolidines” (priority 1999, dated 2004).

Tests used:
corn = test: Test B pre/postemergence corn; type: in vivo, Zea mays
Summary of the method: (§1)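 Herbicidal effect was estimated by eye on a ten-point control scale after plants spent twelve to sixteen days in a greenhouse following soil or foliar treatment. Foliar sprays targeted plants at one to four leaves; all doses were formulated in a non-phytotoxic solvent with surfactant.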

rape = test: Test B pre/postemergence rape; type: in vivo, Brassica napus
Summary of the method: as §1

smallflower flatsedge = test: Test B flood test smallflower flatsedge; type: in vivo, Cyperus difformis
Summary of the method: (§2)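 Plants were grown to the 2-leaf stage before treatment with test chemical, then held in a greenhouse for twelve to sixteen days. Injury was visually rated against untreated controls on a 0–10 scale, where 0 is no effect and 10 is complete control.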

soybean = test: Test B pre/postemergence soybean; type: in vivo, Glycine max
Summary of the method: as §1

rice = test: Test B flood test rice; type: in vivo, Oryza sativa
Summary of the method: as §2

morningglory = test: Test B pre/postemergence morningglory; type: in vivo, Ipomoea hederacea
Summary of the method: as §1

wild oat = test: Test B pre/postemergence wild oat; type: in vivo, Avena fatua
Summary of the method: as §1

giant foxtail = test: Test B pre/postemergence giant foxtail; type: in vivo, Setaria faberii
Summary of the method: as §1

pigweed = test: Test B pre/postemergence pigweed; type: in vivo, Amaranthus retroflexus
Summary of the method: as §1

crabgrass = test: Test B pre/postemergence crabgrass; type: in vivo, Digitaria sanguinalis
Summary of the method: as §1

cocklebur = test: Test B pre/postemergence cocklebur; type: in vivo, Xanthium strumarium
Summary of the method: as §1

bedstraw = test: Test B pre/postemergence bedstraw; type: in vivo, Galium aparine
Summary of the method: as §1

wheat = test: Test B pre/postemergence wheat; type: in vivo, Triticum aestivum
Summary of the method: as §1

duck salad = test: Test B flood test duck salad; type: in vivo, Heteranthera limosa
Summary of the method: as §2

purple nutsedge = test: Test B pre/postemergence purple nutsedge; type: in vivo, Cyperus rotundus
Summary of the method: as §1

velvetleaf = test: Test B pre/postemergence velvetleaf; type: in vivo, Abutilon theophrasti
Summary of the method: as §1

[1] = Preemergence, Rate 62 g/ha, scale of 0 to 10 where 0 is no effect and 10 is complete control
[2] = Preemergence, Rate 250 g/ha, scale of 0 to 10 where 0 is no effect and 10 is complete control
[3] = Preemergence, Rate 500 g/ha, scale of 0 to 10 where 0 is no effect and 10 is complete control
[4] = Rate 62 g/ha, Postemergence, scale of 0 to 10 where 0 is no effect and 10 is complete control
[5] = Rate 125 g/ha, Postemergence, scale 0 to 10
[6] = Rate 125 g/ha, Preemergence, scale of 0 to 10 where 0 is no effect and 10 is complete control
[7] = Rate 500 g/ha, Postemergence, scale 0 to 10, 0 no effect, 10 complete control
[8] = Rate 62 g/ha, headed Pre-emergence (flood test species), scale 0 to 10 (0 no effect, 10 complete control)
[9] = Rate 125 g/ha, Pre-emergence, flood test species, scale 0 to 10 where 0 is no effect and 10 is complete control
[10] = Rate 250 g/ha, Pre-emergence, flood-test species, scale 0 to 10, 0 is no effect, 10 is complete control
[11] = Rate 500 g/ha, Pre-emergence, flood test species, scale 0 to 10 (0 no effect, 10 complete control)

Cc1nc(C)c(Cn2c(=O)on(C(=O)N(c3ccc(F)cc3F)C(C)C)c2=O)s1 [Compound 233]
Corn plant response rating (corn; [1]): 0 | Corn plant response rating (corn; [2]): 0 | Plant response rating, Corn (corn; [3]): 0 | Corn plant response rating (corn; [4]): 0 | Corn plant response rating (corn; [5]): 0 | Corn plant response rating (corn; [6]): 0 | Plant response rating (0 to 10; 0 is no effect, 10 is complete control), Corn (corn; Rate 250 g/ha, Postemergence): 0 | Corn plant response rating (corn; [7]): 0 | Rape plant response rating (rape; [1]): 0 | Rape plant response rating (rape; [2]): 0 | Plant response rating, Rape (rape; [3]): 3 | Rape plant response rating (rape; [4]): 2 | Rape plant response rating (rape; [5]): 2 | Rape plant response rating (rape; [6]): 0 | Plant response rating (0 to 10; 0 is no effect, 10 is complete control), Rape (rape; Rate 250 g/ha, Postemergence): 2 | Rape plant response rating (rape; [7]): 3 | S. Flatsedge plant response rating (smallflower flatsedge; [8]): 0 | S. Flatsedge plant response rating (smallflower flatsedge; [9]): 0 | S. Flatsedge plant response rating (smallflower flatsedge; [10]): 0 | S. Flatsedge plant response rating (smallflower flatsedge; [11]): 0 | Soybean plant response rating (soybean; [1]): 0 | Soybean plant response rating (soybean; [2]): 0 | Plant response rating, Soybean (soybean; [3]): 0 | Soybean plant response rating (soybean; [4]): 3 | Soybean plant response rating (soybean; [5]): 3 | Soybean plant response rating (soybean; [6]): 0 | Plant response rating (0 to 10; 0 is no effect, 10 is complete control), Soybean (soybean; Rate 250 g/ha, Postemergence): 3 | Soybean plant response rating (soybean; [7]): 5 | Rice plant response rating (rice; [8]): 0 | Rice plant response rating (rice; [9]): 0 | Rice plant response rating (rice; [10]): 0 | Rice plant response rating (rice; [11]): 0 | Morningglory plant response rating (morningglory; [1]): 0 | Morningglory plant response rating (morningglory; [2]): 0 | Plant response rating, Morningglory (morningglory; [3]): 2 | Morningglory plant response rating (morningglory; [4]): 3 | Morningglory plant response rating (morningglory; [5]): 3 | Morningglory plant response rating (morningglory; [6]): 0 | Plant response rating (0 to 10; 0 is no effect, 10 is complete control), Morningglory (morningglory; Rate 250 g/ha, Postemergence): 3 | Morningglory plant response rating (morningglory; [7]): 8 | Wild oats plant response rating (wild oat; [1]): 0 | Wild oats plant response rating (wild oat; [2]): 2 | Plant response rating, Wild oats (wild oat; [3]): 6 | Wild oats plant response rating (wild oat; [4]): 0 | Wild oats plant response rating (wild oat; [5]): 0 | Wild oats plant response rating (wild oat; [6]): 1 | Plant response rating (0 to 10; 0 is no effect, 10 is complete control), Wild oats (wild oat; Rate 250 g/ha, Postemergence): 2 | Wild oats plant response rating (wild oat; [7]): 2 | Giant foxtail plant response rating (giant foxtail; [1]): 7 | Giant foxtail plant response rating (giant foxtail; [2]): 9 | Plant response rating, Giant foxtail (giant foxtail; [3]): 10 | Giant foxtail plant response rating (giant foxtail; [4]): 0 | Giant foxtail plant response rating (giant foxtail; [5]): 0 | Giant foxtail plant response rating (giant foxtail; [6]): 7 | Plant response rating (0 to 10; 0 is no effect, 10 is complete control), Giant foxtail (giant foxtail; Rate 250 g/ha, Postemergence): 3 | Giant foxtail plant response rating (giant foxtail; [7]): 6 | Redroot pigweed plant response rating (pigweed; [1]): 3 | Redroot pigweed plant response rating (pigweed; [2]): 7 | Plant response rating, Redroot pigweed (pigweed; [3]): 8 | Redroot pigweed plant response rating (pigweed; [4]): 0 | Redroot pigweed plant response rating (pigweed; [5]): 0 | Redroot pigweed plant response rating (pigweed; [6]): 6 | Plant response rating (0 to 10; 0 is no effect, 10 is complete control), Redroot pigweed (pigweed; Rate 250 g/ha, Postemergence): 2 | Redroot pigweed plant response rating (pigweed; [7]): 4 | Crabgrass plant response rating (crabgrass; [1]): 5 | Crabgrass plant response rating (crabgrass; [2]): 9 | Plant response rating, Crabgrass (crabgrass; [3]): 10 | Crabgrass plant response rating (crabgrass; [4]): 0 | Crabgrass plant response rating (crabgrass; [5]): 0 | Crabgrass plant response rating (crabgrass; [6]): 6 | Plant response rating (0 to 10; 0 is no effect, 10 is complete control), Crabgrass (crabgrass; Rate 250 g/ha, Postemergence): 1 | Crabgrass plant response rating (crabgrass; [7]): 6 | Cocklebur plant response rating (cocklebur; [1]): 0 | Cocklebur plant response rating (cocklebur; [2]): 0 | Plant response rating, Cocklebur (cocklebur; [3]): 0 | Cocklebur plant response rating (cocklebur; [4]): 0 | Cocklebur plant response rating (cocklebur; [5]): 2 | Cocklebur plant response rating (cocklebur; [6]): 0 | Plant response rating (0 to 10; 0 is no effect, 10 is complete control), Cocklebur (cocklebur; Rate 250 g/ha, Postemergence): 2 | Cocklebur plant response rating (cocklebur; [7]): 2 | Bedstraw plant response rating (bedstraw; [1]): 0 | Bedstraw plant response rating (bedstraw; [2]): 0 | Plant response rating, Bedstraw (bedstraw; [3]): 0 | Bedstraw plant response rating (bedstraw; [4]): 0 | Bedstraw plant response rating (bedstraw; [5]): 0 | Bedstraw plant response rating (bedstraw; [6]): 0 | Plant response rating (0 to 10; 0 is no effect, 10 is complete control), Bedstraw (bedstraw; Rate 250 g/ha, Postemergence): 3 | Bedstraw plant response rating (bedstraw; [7]): 5 | Wheat plant response rating (wheat; [1]): 0 | Wheat plant response rating (wheat; [2]): 0 | Plant response rating, Wheat (wheat; [3]): 0 | Wheat plant response rating (wheat; [4]): 0 | Wheat plant response rating (wheat; [5]): 0 | Wheat plant response rating (wheat; [6]): 0 | Plant response rating (0 to 10; 0 is no effect, 10 is complete control), Wheat (wheat; Rate 250 g/ha, Postemergence): 0 | Wheat plant response rating (wheat; [7]): 0 | Ducksalad plant response rating (duck salad; [8]): 0 | Ducksalad plant response rating (duck salad; [9]): 0 | Ducksalad plant response rating (duck salad; [10]): 0 | Ducksalad plant response rating (duck salad; [11]): 0 | Nutsedge plant response rating (purple nutsedge; [1]): 0 | Nutsedge plant response rating (purple nutsedge; [2]): 0 | Nutsedge plant response rating (purple nutsedge; [4]): 0 | Nutsedge plant response rating (purple nutsedge; [5]): 0 | Plant response rating (0 to 10; 0 is no effect, 10 is complete control), Nutsedge (purple nutsedge; Rate 250 g/ha, Postemergence): 0 | Nutsedge plant response rating (purple nutsedge; [7]): 0 | Velvetleaf plant response rating (velvetleaf; [1]): 0 | Velvetleaf plant response rating (velvetleaf; [2]): 2 | Plant response rating, Velvetleaf (velvetleaf; [3]): 7 | Velvetleaf plant response rating (velvetleaf; [4]): 2 | Velvetleaf plant response rating (velvetleaf; [5]): 2 | Velvetleaf plant response rating (velvetleaf; [6]): 0 | Plant response rating (0 to 10; 0 is no effect, 10 is complete control), Velvetleaf (velvetleaf; Rate 250 g/ha, Postemergence): 3 | Velvetleaf plant response rating (velvetleaf; [7]): 3
